In patent US20230019619A1, “TREATMENT OF A DISEASE OF THE GASTROINTESTINAL TRACT WITH A TLR MODULATOR” (BIORA THERAPEUTICS, INC., priority 2016, published 2023):

Assay: Tacrolimus tissue pharmacokinetics, oral versus intra-cecal ingestible device delivery
Type: in vivo, Yorkshire-Cross farm swine
Details: swine, intra-cecal as compared to oral, 12 hours post-dose
Description: The primary objective of this study was to compare the tissue, plasma, rectal sample, and GI content pharmacokinetics of tacrolimus through oral versus intra-cecal ingestible device delivery in normal Yorkshire-Cross farm swine.
No further randomization procedure was employed.
Animals in Group 1 received an ingestible device containing 0.8 mL of vehicle solution (80% alcohol, 20% HCO-60). Animals in Group 2 received orally […] liquid formulation of tacrolimus at 4 mg/0.8 mL per animal (Prograf: 5 mg/mL). Animals in Group 3 received intra-cecally an ingestible device containing tacrolimus at 1 mg in 0.8 mL per ingestible device. […]
Approximately 200˜400 mg of rectal content were collected, if available, with a fecal swab (Copan Diagnostics Nylon Flocked Dry Swabs, 502CS01). The fecal swab was pre-weighed and weighed after collection in the collection tube (Sterile Tube and Cap No Media, PFPM913S), and the sample weight was recorded. […]
For tissue necropsy, small intestine fluid and cecal fluid were collected separately from all the animals into two separate square plastic bottles, and stored at −20° C. The length and diameter of the cecum and the colon was measured from one animal in each group and recorded for reference. […] All samples were weighed, and the tissue sample weights were recorded. […]

mean concentration in the cecum tissue and the proximate colon tissue (FIG. 76): higher
SMILES: C=CC[C@@H]1/C=C(\C)C[C@H](C)C[C@H](OC)[C@H]2O[C@@](O)(C(=O)C(=O)N3CCCC[C@H]3C(=O)O[C@H](/C(C)=C/[C@@H]3CC[C@@H](O)[C@H](OC)C3)[C@H](C)[C@@H](O)CC1=O)[C@H](C)C[C@@H]2OC [tacrolimus]
